Measured values: US20060069132A1, “Azolecarboxamide herbicides” (priority 2004, published 2006)

How the values were obtained:
[1] = system: giant foxtail; experiment: Test A pre-/postemergence herbicide test; assay type: in vivo, Setaria faberi
Summary of the method: (§1)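 Visual injury rating on a 0–100 scale (0 no effect, 100 complete control) versus untreated controls, about ten days after treatment in greenhouse. Pre: directed soil spray onto seeded sandy loam. Post: spray to runoff on plants 2–10 cm tall at one- to two-leaf stage.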

[2] = system: ducksalad; experiment: Test B flooded paddy test; assay type: in vivo, Heteranthera limosa; conditions: 1000 g ai/ha, scale 0 to 100 (0 no effect, 100 complete control)
Summary of the method: (§2)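 Formulated test chemicals went onto postemergence plants measuring 2 to 18 cm, at one to four leaves. For the paddy assay, species had reached two leaves. Scoring took place 13–15 days later by eye, relative to untreated plants, using 0 for no effect up to 100 for full control.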

[3] = system: barnyardgrass; experiment: Test A pre-/postemergence herbicide test; assay type: in vivo, Echinochloa crus-galli
Summary of the method: as §1

[4] = system: large crabgrass; experiment: Test B pre-/postemergence herbicide test; assay type: in vivo, Digitaria sanguinalis; conditions: for Crabgrass, Large plant response rating: postemergence
Summary of the method: (§3)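 Plants compared with untreated controls 13–15 days post-treatment and given a visual 0–100 injury score. Applications: preemergence to seeds; postemergence at 1- to 4-leaf (2–18 cm); paddy species flooded, 2-leaf stage. Vehicle non-phytotoxic, surfactant included.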

[5] = system: velvetleaf; experiment: Test A pre-/postemergence herbicide test; assay type: in vivo, Abutilon theophrasti
Summary of the method: as §1

[6] = system: redroot pigweed; experiment: Test A pre-/postemergence herbicide test; assay type: in vivo, Amaranthus retroflexus
Summary of the method: as §1

[7] = system: morningglory; experiment: Test A pre-/postemergence herbicide test; assay type: in vivo, Ipomoea spp.
Summary of the method: as §1

[8] = system: morningglory; experiment: Test B pre-/postemergence herbicide test; assay type: in vivo, Ipomoea coccinea; conditions: for Morningglory plant response rating: postemergence
Summary of the method: as §3

[9] = system: small flower umbrella sedge; experiment: Test B flooded paddy test; assay type: in vivo, Cyperus difformis; conditions: 1000 g ai/ha, scale 0 to 100 (0 no effect, 100 complete control)
Summary of the method: as §2

[10] = system: wild oat; experiment: Test B postemergence herbicide test; assay type: in vivo, Avena fatua; conditions: postemergence
Summary of the method: (§4)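 After treating 2-leaf paddy plants or 2–18 cm postemergence plants (1 to 4 leaves) with formulated chemical, researchers kept them in a greenhouse for 13–15 days. Effects were judged visually versus controls: 0 indicates none, 100 total control.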

[11] = system: barnyardgrass; experiment: Test B pre-/postemergence herbicide test; assay type: in vivo, Echinochloa crus-galli; conditions: for Barnyardgrass plant response rating: postemergence
Summary of the method: as §3

[12] = system: corn; experiment: Test B pre-/postemergence herbicide test; assay type: in vivo, Zea mays; conditions: for Corn plant response rating: postemergence
Summary of the method: as §3

[13] = system: rice; experiment: Test B pre-/postemergence herbicide test; assay type: in vivo, Oryza sativa; conditions: 0 = no effect, 100 = complete control, preemergence
Summary of the method: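 Greenhouse pot assay with simultaneous preemergence (treated seed) and postemergence (2–18 cm seedlings) applications of surfactant-containing, non-phytotoxic solvent formulations. Response scored visually 13–15 days later on a 0–100 scale, 100 meaning complete control.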

[14] = system: blackgrass; experiment: Test B postemergence herbicide test; assay type: in vivo, Alopecurus myosuroides; conditions: postemergence
Summary of the method: as §2

[15] = system: Surinam grass; experiment: Test B pre-/postemergence herbicide test; assay type: in vivo, Urochloa decumbens; conditions: for Surinam Grass plant response rating: postemergence
Summary of the method: as §3

[16] = system: wheat; experiment: Test B postemergence herbicide test; assay type: in vivo, Triticum aestivum; set-up: key to Wheat plant response rating: 0 = no effect, 100 = complete control; conditions: postemergence
Summary of the method: as §4

[17] = system: large crabgrass; experiment: Test A pre-/postemergence herbicide test; assay type: in vivo, Digitaria sanguinalis
Summary of the method: as §1

[18] = system: cocklebur; experiment: Test B pre-/postemergence herbicide test; assay type: in vivo, Xanthium strumarium; conditions: for Cocklebur plant response rating: postemergence
Summary of the method: as §3

[19] = system: pigweed; experiment: Test B pre-/postemergence herbicide test; assay type: in vivo, Amaranthus retroflexus; conditions: for Pigweed plant response rating: postemergence
Summary of the method: as §3

[20] = system: lambsquarters; experiment: Test B pre-/postemergence herbicide test; assay type: in vivo, Chenopodium album; conditions: for Lambsquarters plant response rating: postemergence
Summary of the method: as §3

[21] = system: velvetleaf; experiment: Test B pre-/postemergence herbicide test; assay type: in vivo, Abutilon theophrasti; conditions: for Velvetleaf plant response rating: postemergence
Summary of the method: as §3

[22] = system: giant foxtail; experiment: Test B pre-/postemergence herbicide test; assay type: in vivo, Setaria faberi; conditions: for Foxtail, Giant plant response rating: postemergence
Summary of the method: as §3

[23] = system: rice; experiment: Test B flooded paddy test; assay type: in vivo, Oryza sativa; conditions: 1000 g ai/ha, scale 0 to 100 (0 no effect, 100 complete control)
Summary of the method: as §2

[24] = system: barnyardgrass; experiment: Test B flooded paddy test; assay type: in vivo, Echinochloa crus-galli; conditions: 1000 g ai/ha, scale 0 to 100 (0 no effect, 100 complete control)
Summary of the method: as §2

[25] = Postemergence, 500 g ai/ha, 0 to 100 scale, 0 no effect, 100 complete control
[26] = Postemergence, 2000 g ai/ha, 0 to 100 scale, 0 no effect, 100 complete control
[27] = Preemergence, 2000 g ai/ha, visual rating, 0 to 100 scale (0 no effect, 100 complete control)
[28] = preemergence, 500 g ai/ha, visual injury, 0 to 100 scale (0 no effect, 100 complete control)
[29] = 125 g ai/ha, 0 = no effect, 100 = complete control, preemergence
[30] = 500 g ai/ha, visual rating, 0 = no effect, 100 = complete control, preemergence
[31] = 125 g ai/ha, visual rating, scale 0 (no effect) to 100 (complete control)
[32] = 500 g ai/ha, scale 0 to 100, 0 is no effect, 100 is complete control

## CCN(C)C(=O)c1ccc(F)c(NC(=O)c2cc(C(C)(C)C)nn2CC)n1 [Compound 280]
[1]; [25]
  Foxtail, Giant plant response rating: 0
[1]; [26]
  Plant response rating, Foxtail, Giant: 0
[1]; [27]
  Foxtail, Giant plant response rating: 45
[1]; [28]
  Foxtail, Giant plant response rating: 5
[2]
  Ducksalad plant response rating: 20
[3]; [25]
  Barnyardgrass plant response rating: 0
[3]; [26]
  Plant response rating, Barnyardgrass: 25
[3]; [27]
  Barnyardgrass plant response rating: 45
[3]; [28]
  Barnyardgrass plant response rating: 0
[4]; [29]
  Crabgrass, Large plant response rating (0 to 100 scale): 0
[4]; [30]
  Plant response rating, Crabgrass, Large: 10
[4]; [31]
  Crabgrass, Large plant response rating: 0
[4]; [32]
  Crabgrass, Large plant response rating: 0
[5]; [25]
  Velvetleaf plant response rating: 20
[5]; [26]
  Plant response rating, Velvetleaf: 30
[5]; [27]
  Velvetleaf plant response rating: 30
[5]; [28]
  Velvetleaf plant response rating: 0
[6]; [25]
  Pigweed plant response rating: 55
[6]; [26]
  Plant response rating, Pigweed: 70
[6]; [27]
  Pigweed plant response rating: 90
[6]; [28]
  Pigweed plant response rating: 15
[7]; [25]
  Morningglory plant response rating: 0
[7]; [26]
  Plant response rating, Morningglory: 10
[7]; [27]
  Morningglory plant response rating: 15
[7]; [28]
  Morningglory plant response rating: 0
[8]; [29]
  Morningglory plant response rating (0 to 100 scale): 0
[8]; [30]
  Plant response rating, Morningglory: 0
[8]; [31]
  Morningglory plant response rating: 0
[8]; [32]
  Morningglory plant response rating: 10
[9]
  Sedge, Umbrella plant response rating: 30
[10]; [31]
  Oat, Wild plant response rating: 10
[10]; [32]
  Oat, Wild plant response rating: 20
[11]; [29]
  Barnyardgrass plant response rating (0 to 100 scale): 0
[11]; [30]
  Plant response rating, Barnyardgrass: 10
[11]; [31]
  Barnyardgrass plant response rating: 0
[11]; [32]
  Barnyardgrass plant response rating: 0
[12]; [29]
  Corn plant response rating (0 to 100 scale): 0
[12]; [30]
  Plant response rating, Corn: 0
[12]; [31]
  Corn plant response rating: 0
[12]; [32]
  Corn plant response rating: 10
[13]; 125 g ai/ha
  Rice plant response rating (0 to 100 scale): 0
[13]; 500 g ai/ha, visual rating
  Plant response rating, Rice: 10
[14]; [31]
  Blackgrass plant response rating: 20
[14]; [32]
  Blackgrass plant response rating: 20
[15]; [29]
  Surinam Grass plant response rating (0 to 100 scale): 0
[15]; [30]
  Plant response rating, Surinam Grass: 10
[15]; [31]
  Surinam Grass plant response rating: 0
[15]; [32]
  Surinam Grass plant response rating: 10
[16]; [31]
  Wheat plant response rating: 20
[16]; [32]
  Wheat plant response rating: 30
[17]; [25]
  Crabgrass, Large plant response rating: 5
[17]; [26]
  Plant response rating, Crabgrass, Large: 0
[17]; [27]
  Crabgrass, Large plant response rating: 25
[17]; [28]
  Crabgrass, Large plant response rating: 0
[18]; [29]
  Cocklebur plant response rating (0 to 100 scale): 0
[18]; [30]
  Plant response rating, Cocklebur: 0
[18]; [31]
  Cocklebur plant response rating: 0
[18]; [32]
  Cocklebur plant response rating: 30
[19]; [29]
  Pigweed plant response rating (0 to 100 scale): 70
[19]; [30]
  Plant response rating, Pigweed: 100
[19]; [31]
  Pigweed plant response rating: 10
[19]; [32]
  Pigweed plant response rating: 20
[20]; [30]
  Plant response rating, Lambsquarters: 80
[20]; [31]
  Lambsquarters plant response rating: 10
[20]; [32]
  Lambsquarters plant response rating: 20
[21]; [29]
  Velvetleaf plant response rating (0 to 100 scale): 10
[21]; [30]
  Plant response rating, Velvetleaf: 20
[21]; [31]
  Velvetleaf plant response rating: 10
[21]; [32]
  Velvetleaf plant response rating: 20
[22]; [29]
  Foxtail, Giant plant response rating (0 to 100 scale): 0
[22]; [30]
  Plant response rating, Foxtail, Giant: 10
[22]; [31]
  Foxtail, Giant plant response rating: 0
[22]; [32]
  Foxtail, Giant plant response rating: 0
[23]
  Rice plant response rating: 0
[24]
  Barnyardgrass plant response rating: 0
